Reference: patent US8383658B2, “Isoxazole based neuronal nicotinic receptor ligands and methods of use” (Abbott Laboratories, priority 2008, dated 2013)

Biological target: T1, human α4β2 (Homo sapiens, UniProt P17787+P43681)
T1 construct: expressed in transfected cells
Experiment: Calcium flux assay (FLIPR), potentiation of submaximal agonist response in HEK 293 cells expressing α4β2
Type: cell-based
Settings: α4β2 PAM; fluorescence response to submaximal nicotine considered as 100%
From the text: One manner to characterize α4β2 PAM activity is by characterization in clonal cell lines (for example, human embryonic kidney 293 cells) expressing the human neuronal nicotinic acetylcholine receptor subtype α4β2, particularly by use of Fluorescent Image Plate Reader technology. Effects on calcium flux or membrane potential changes can be assessed. Such assays have been reported and further details for carrying out the assays can be obtained in International Publication No. WO 2006/114400. Another method to identify and characterize allosteric modulator activity is by expressing the α4β2 subunits in Xenopus oocytes, and by measuring electrophysiological effects on ligand-evoked current responses as previously described in Curtis, L., et al., Molecular Pharmacology, 61: 127-135, 2002.
To determine the effectiveness of representative compounds of this invention as ligands for α4β2 PAM activity, the compounds of the invention can be evaluated according to the Calcium Flux Assay described below.
Human embryonic kidney (HEK) 293 cells stably expressing human α4β2 or α3β4 combinations are grown to confluency in 162 cm^2 tissue culture flasks in DMEM media supplemented with 10% FBS and 25 μg/ml zeocin and 200 μg/ml hygromycin B. Cells expressing rat or ferret subunits may also be used. For assessing α3* or α7* selectivity, IMR-32 cells may also be used. IMR-32 neuroblastoma cells (ATCC) are grown to confluency in 162 cm^2 tissue culture flasks in minimum essential media supplemented with 10% FBS and 1 mM sodium pyruvate, 1% non-essential amino acids and 1% antibiotic-antimycotic. For the calcium flux assay, c cells are then dissociated using cell dissociation buffer and 100-150 μl per well of 3.5×10^5 cells/ml cell suspension (˜50,000-100,000 cells/well) was plated into 96-well black plates (poly-D-lysine precoated) with clear bottom and maintained for 24-48 hours in a tissue culture incubator at 37° C. under an atmosphere of 5% CO2: 95% air. Other clonal cell lines or primary cell cultures that express endogenous α4* nicotinic receptors may also be used in this assay. Calcium flux was measured using calcium-3 assay kit (Molecular Devices, Sunnyvale, Calif.) or fluo-4 (Invitrogen). A stock solution of the dye was prepared by dissolving each vial supplied by the vendor in Hank's balanced salt solution buffer (HBSS) or 150 mM NMDG, 20 mM CaCl2 containing 10 mM HEPES. The stock solution was diluted 1:20 using the same buffer before use. The growth media was removed from the cells. The cells were loaded with 100 μl of the dye per well and incubated at room temperature for up to one hour for HEK 293 clonal stable cell lines or 30 minutes-45 minutes at 37° C. for IMR-32 cells. Fluorescence measurements were read simultaneously from all the wells by a Fluorometic Imaging Plate Reader (FLIPR) at an excitation wavelength of 480 nm and an emission wavelength of 520 nm. Baseline fluorescence was measured for the first 6 seconds at which 3× concentrations of modulator/test compounds were added to the cell plate at 50 μl and incubated for five minutes. The fluorescence intensity was captured every second for the first 1 minute followed by every 5 seconds for an additional 4 minutes. This procedure was followed by 50 μl of 4× concentration of agonist and readings were taken for a period of 3-5 minutes as described above.
The ability of test compounds to positively modulate the response (i.e., increase the response) induced by a submaximal concentration of agonist (EC20-30%) such as nicotine is measured. Potentiation is measured based on peak fluorescence responses by screening compounds at fixed concentrations or in a concentration-response manner to derive EC50 values. The concentration dependence of changes in fluorescence responses is fitted by nonlinear regression analysis (GraphPad Prism, San Diego, Calif.) to obtain EC50 values. The degree of potentiation and EC50 values of the test compounds are typically calculated. […]

T1 sequence (P43681 29-627 limits assumed): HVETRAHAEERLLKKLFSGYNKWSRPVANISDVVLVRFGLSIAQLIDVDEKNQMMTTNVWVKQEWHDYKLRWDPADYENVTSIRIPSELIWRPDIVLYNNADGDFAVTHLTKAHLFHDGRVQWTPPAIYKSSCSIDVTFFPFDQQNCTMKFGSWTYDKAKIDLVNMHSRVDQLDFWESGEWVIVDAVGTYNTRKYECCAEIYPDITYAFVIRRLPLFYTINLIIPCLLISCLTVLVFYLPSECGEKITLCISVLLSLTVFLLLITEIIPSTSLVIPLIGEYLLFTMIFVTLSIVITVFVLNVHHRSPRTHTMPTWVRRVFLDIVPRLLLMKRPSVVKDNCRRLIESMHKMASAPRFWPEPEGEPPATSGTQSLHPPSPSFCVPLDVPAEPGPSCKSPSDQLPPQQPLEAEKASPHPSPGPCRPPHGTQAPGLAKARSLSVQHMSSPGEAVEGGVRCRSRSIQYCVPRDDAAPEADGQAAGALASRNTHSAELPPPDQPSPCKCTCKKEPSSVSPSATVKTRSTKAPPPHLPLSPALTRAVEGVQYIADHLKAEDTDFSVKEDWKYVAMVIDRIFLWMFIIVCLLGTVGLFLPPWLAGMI
T1 sequence (P17787 26-502): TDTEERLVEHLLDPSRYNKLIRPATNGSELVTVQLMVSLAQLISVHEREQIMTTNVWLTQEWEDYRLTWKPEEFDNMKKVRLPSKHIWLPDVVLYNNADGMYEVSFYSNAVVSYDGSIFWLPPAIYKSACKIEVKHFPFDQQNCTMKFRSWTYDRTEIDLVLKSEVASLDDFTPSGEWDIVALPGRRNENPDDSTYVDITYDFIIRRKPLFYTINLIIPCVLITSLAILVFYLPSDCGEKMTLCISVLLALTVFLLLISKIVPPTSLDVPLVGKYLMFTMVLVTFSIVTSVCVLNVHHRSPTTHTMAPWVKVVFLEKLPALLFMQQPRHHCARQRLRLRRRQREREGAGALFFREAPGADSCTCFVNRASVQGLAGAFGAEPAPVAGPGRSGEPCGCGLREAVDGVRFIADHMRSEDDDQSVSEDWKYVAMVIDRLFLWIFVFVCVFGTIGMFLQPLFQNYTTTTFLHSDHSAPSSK

Row | SMILES | Activity (allosteric effects—potentiation of fluorescence responses)
1 | c1cncc(-c2cc(-c3cccnc3)on2)c1 [Example 1, 3,5-Di(pyridin-3-yl)isoxazole] | a (“a” denotes as activity range from 200-400%)
2 | Fc1ccc(-c2cc(-c3cccnc3)no2)cc1F [Example 16, 5-(3,4-Difluorophenyl)-3-(pyridin-3-yl)isoxazole] | b (“b” denotes an activity range from 150-200%)
3 | Fc1cc(-c2cc(-c3cccnc3)no2)cc(F)c1F [Example 17, 5-(3,4,5-Trifluorophenyl)-3-(pyridin-3-yl)isoxazole] | a (“a” denotes as activity range from 200-400%)
4 | CC(=O)c1cccc(-c2cc(-c3cccnc3)no2)c1 [Example 25, 1-(3-(3-(Pyridin-3-yl)isoxazol-5-yl)phenyl)ethanone] | b (“b” denotes an activity range from 150-200%)
5 | N#Cc1cccc(-c2cc(-c3cncc(F)c3)no2)c1 [Example 29, 3-(3-(5-Fluoropyridin-3-yl)isoxazol-5-yl)benzonitrile] | b (“b” denotes an activity range from 150-200%)
6 | N#Cc1cc(-c2cc(-c3cccnc3)no2)ccc1F [Example 68, 2-Fluoro-5-(3-(pyridin-3-yl)isoxazol-5-yl)benzonitrile] | a (“a” denotes as activity range from 200-400%)
